Publication PMC7195466, “A common allosteric mechanism regulates homeostatic inactivation of auxin and gibberellin” (Nature Communications, 2020)
Each block holds one compound with its values, some of them ahead of it.

How the values were obtained:
[1] = target: T1, OsGA2ox3 (GA 2-oxidase 3) (Oryza sativa, UniProt Q8S0S6); experiment: X-ray crystal structure, […] Å; assay type: binding; conditions: Fe(II) absent
T1 construct: gene GA2OX3; full-length coding region in pGEX6P1, GST tag cut off with PreScission protease, E. coli Rosetta (DE3) pLysS; monomer, homotetramer with GA4
T1 sequence (Q8S0S6 whole entry): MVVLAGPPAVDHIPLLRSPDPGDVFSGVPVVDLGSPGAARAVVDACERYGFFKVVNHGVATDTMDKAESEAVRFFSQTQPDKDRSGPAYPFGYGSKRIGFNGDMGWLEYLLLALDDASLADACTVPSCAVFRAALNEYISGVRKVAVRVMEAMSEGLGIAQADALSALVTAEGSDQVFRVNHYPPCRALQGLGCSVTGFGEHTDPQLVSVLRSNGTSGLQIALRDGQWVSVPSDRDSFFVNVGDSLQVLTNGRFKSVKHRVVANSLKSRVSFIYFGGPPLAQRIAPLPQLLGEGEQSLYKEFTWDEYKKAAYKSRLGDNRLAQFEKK

[2] = target: T2, OsDAO (dioxygenase for auxin oxidation) (Oryza sativa, UniProt Q7XKU5); experiment: X-ray crystal structure, […] Å; assay type: binding; conditions: allosteric, two IAA molecules at the dimer interface; crystallised with 2-oxoglutarate
T2 construct: gene DAO; full-length coding region in pGEX6P1, GST tag cut off with PreScission protease, E. coli Rosetta (DE3) pLysS; monomer, dimer with IAA
T2 sequence (Q7XKU5 1-300): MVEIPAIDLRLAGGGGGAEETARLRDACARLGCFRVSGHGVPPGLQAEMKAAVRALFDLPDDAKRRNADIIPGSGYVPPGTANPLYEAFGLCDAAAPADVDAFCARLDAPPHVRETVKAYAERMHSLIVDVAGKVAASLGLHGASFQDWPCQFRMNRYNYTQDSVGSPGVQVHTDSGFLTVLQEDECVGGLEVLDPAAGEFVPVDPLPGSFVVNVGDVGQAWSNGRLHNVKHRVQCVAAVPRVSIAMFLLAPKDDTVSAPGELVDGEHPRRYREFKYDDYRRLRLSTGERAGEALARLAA

[3] = target: T3, OsGA2ox3 (GA 2-oxidase 3) (Oryza sativa, UniProt Q8S0S6, C194A/K308A/K313A); experiment: GC-SIM-MS of GA34, activity after incubation with GA4; assay type: biochemical; conditions: 3Mu, interface-site mutant; same
T3 construct: gene GA2OX3; full-length coding region in pGEX6P1, GST tag cut off with PreScission protease, E. coli Rosetta (DE3) pLysS; monomer, homotetramer with GA4
T3 sequence (Q8S0S6 whole entry C194A/K308A/K313A): as the sequence (Q8S0S6 whole entry) above, with C194A, K308A, K313A counted along it

OsGA2ox6 = target: T4, OsGA2ox6 (Oryza sativa, UniProt Q7XP65); experiment: gel filtration, ligand-induced dimerization; assay type: binding; conditions: 10 mM GA4 incubation, 18 h, 25 °C, pH 7.4; interface (allosteric)
T4 construct: gene GA2OX6; full-length coding region in pGEX6P1 (GST fusion); C20-type; monomer, dimer with GA4
T4 sequence (Q7XP65 1-358): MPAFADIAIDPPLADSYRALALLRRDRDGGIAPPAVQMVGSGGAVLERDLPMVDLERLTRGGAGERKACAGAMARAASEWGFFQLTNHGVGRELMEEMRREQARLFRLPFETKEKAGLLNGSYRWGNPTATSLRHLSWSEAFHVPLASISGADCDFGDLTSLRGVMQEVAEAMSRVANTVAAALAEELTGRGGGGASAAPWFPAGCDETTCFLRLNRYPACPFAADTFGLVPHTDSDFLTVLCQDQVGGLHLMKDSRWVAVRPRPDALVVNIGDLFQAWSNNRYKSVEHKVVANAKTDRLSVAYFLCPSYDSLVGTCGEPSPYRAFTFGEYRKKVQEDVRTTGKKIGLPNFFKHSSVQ

[4] = target: T5, OsGA2ox3 (GA 2-oxidase 3) (Oryza sativa, UniProt Q8S0S6, K308A); experiment: GC-SIM-MS of GA34, activity after incubation with GA4; assay type: biochemical; conditions: interface-site mutant; 2-oxoglutarate, Fe(II), pH 7.9, 30 °C
T5 construct: gene GA2OX3; full-length coding region in pGEX6P1, GST tag cut off with PreScission protease, E. coli Rosetta (DE3) pLysS; monomer, homotetramer with GA4
T5 sequence (Q8S0S6 whole entry K308A): as the sequence (Q8S0S6 whole entry) above, with K308A counted along it
Method: GC-SIM-MS of GA34, activity after incubation with GA4 on OsGA2ox3 (GA 2-oxidase 3) | a single mutation, such as […] or 3Mu, led to no activation by GA4

Compound: O=C(O)CCC(=O)C(=O)O [2OG]
X-ray crystal structure, 2.15 Å ([1]; active site, co-substrate, GA4 present): the amino acids interacting with 2OG (R269, S271, and Y183

Compound: O=C(O)Cc1c[nH]c2ccccc12 [indole-3-acetic acid]
X-ray crystal structure, 2.0 Å [2]: We elucidated the crystal structure of OsDAO complexed with its substrate, IAA

GC-SIM-MS of GA34, activity after incubation with GA4 [3]: no activation of 3Mu occurred at all
Compound: C=C1C[C@]23C[C@H]1CC[C@H]2[C@@]12CC[C@H](O)[C@@](C)(C(=O)O1)[C@H]2[C@@H]3C(=O)O [GA4]
gel filtration, ligand-induced dimerization (OsGA2ox6): The presence of GA4 induced a new peak of its dimer form | X-ray crystal structure, 2.15 Å ([1]; active site and second site (allosteric, subunit interface), 2-oxoglutarate present): We crystallized the enzyme with the co-substrates, 2OG and GA4 in the absence Fe(II) | GC-SIM-MS of GA34, activity after incubation with GA4 [4]: a single mutation, such as K308A or 3Mu, led to no activation by GA4
